Experimental data from EP4737448A1, “SARM1 ENZYME ACTIVITY INHIBITOR AND USE THEREOF” (Artivila (ShenZhen) Innovation Center, Ltd., priority 2023, dated 2025).

How the values were obtained:
[1] = tested on: axons of dorsal root ganglia explants; test: Wallerian degeneration assay of axon in mouse DRG explant culture; assay type: cell-based, C57BL/6 mice; settings: 10 µM compound, 2 h pretreatment, 24 h post axonal transection
Experimental: Dorsal root ganglia were dissected from two-month-old male C57BL/6 mice and placed into a 35-mm culture dish containing ice-cold HBSS buffer. Extra tissue surrounding each dorsal ganglion was removed using a scalpel, and the ganglia were cut into 2-3 explant pieces. These explants were seeded into wells of a 96-well plate pre-coated with 100 ng/mL Matrigel (Corning), added with 100 µL of DRG medium (Neurobasal medium (Gibco) containing 2% B-27 (Gibco), 1% GlutaMAX (Gibco) and 10 ng/mL NGF (MCE)), and cultured in a 37°C incubator for one week. The medium was half- replaced on the fourth day and the experiments were counted on the eighth day.
Refer to methods reported in literatures in the related art (Gerdts J, Sasaki Y, Vohra B, Marasa J, Milbrandt J. Image-based screening identifies novel roles for IkappaB kinase and glycogen synthase kinase 3 in axonal degeneration. J Biol Chem. 2011 Aug 12;286(32):28011-8) for the definition and measurement principle of the degeneration index of axon. In the present disclosure, the measurement method is detaild below.
0.1 µL of 10 mM compound to be tested was added to 100 µL of DRG medium to prepare a new medium containing 10 µM compound to be tested. The medium in the 96-well plate was removed and replaced with the new medium containing the compound to be tested. Explant pieces of dorsal ganglia were incubated with compounds in a 37°C incubator for 2 h of pre-protection. Following this 2-hour pretreatment, axons were transcted near the explants tissue piece using a glass microelectrode. At 0 h and 24 h post axonal transection, brightfield images of axons in the same region were captured using a microscope (Olympus) with 20× objective. Axonal integrity was assessed using an in-house developed script. The results were categorized based on the degree of protection into: (A) >50% and (B) 20-50%.

[2] = target: T1, SARM1 (Homo sapiens, UniProt Q6SZW1); test: In vitro biochemical assay for inhibiting SARM1 enzymatic activity (PC6 fluorescence, NAD substrate, NMN activator); settings: 0.05 µg/mL SARM1, 50 µM NAD, 50 µM PC6, 50 µM NMN, 10 min pre-incubation, 30 min at room temperature
T1 construct: the inventor produces full-length SARM1 for NADase activity assays and for screening; His (C); made in house; host or cells: HEK293 cells (transient transfection; digitonin lysate supernatant, not purified further)
T1 sequence (Q6SZW1 28-724): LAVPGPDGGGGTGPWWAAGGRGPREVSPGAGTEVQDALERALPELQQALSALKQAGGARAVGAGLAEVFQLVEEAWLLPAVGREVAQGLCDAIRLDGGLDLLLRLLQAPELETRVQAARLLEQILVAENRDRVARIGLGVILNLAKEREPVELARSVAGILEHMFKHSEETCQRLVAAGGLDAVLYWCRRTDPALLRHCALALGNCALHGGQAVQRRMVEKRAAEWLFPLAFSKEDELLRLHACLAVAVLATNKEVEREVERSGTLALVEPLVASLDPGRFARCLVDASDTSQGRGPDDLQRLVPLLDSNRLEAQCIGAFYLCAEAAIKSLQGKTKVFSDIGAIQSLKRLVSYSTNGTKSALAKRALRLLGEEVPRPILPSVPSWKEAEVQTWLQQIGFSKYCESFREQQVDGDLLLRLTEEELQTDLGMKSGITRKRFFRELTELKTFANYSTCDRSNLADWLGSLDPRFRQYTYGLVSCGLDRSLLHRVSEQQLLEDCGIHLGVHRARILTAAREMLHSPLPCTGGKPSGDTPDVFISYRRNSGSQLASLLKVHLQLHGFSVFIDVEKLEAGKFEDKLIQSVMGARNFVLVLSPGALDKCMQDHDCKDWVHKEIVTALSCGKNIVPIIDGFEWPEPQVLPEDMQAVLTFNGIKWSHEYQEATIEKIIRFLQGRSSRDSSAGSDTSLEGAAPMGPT

IC50 [2] | SMILES | Degree of protection against axonal Wallerian Degeneration [1]
< 1 µM | O=C1[C@H](Cc2ccc(F)c(F)c2)CCN1c1ccc(-c2ccncc2)cc1 (single isomer, unassigned) [Compound 81] | A ((A) >50%)
1 to 10 µM | [2H]C(c1ccc(Cl)cc1)C1([2H])CCN(c2ccc(-c3ccncc3)cc2)C1=O (stereo not drawn) [Compound 80, 3-((4-chlorophenyl)methyl-deutero)-1-(4-(pyridin-4-yl)phenyl)-3-deutero-pyrrolidin-2-one] | B ((B) 20-50%)
< 1 µM | O=C1C(Cc2ccccc2)CCN1c1ccc(-c2ccncc2)nn1 (stereo not drawn) [Compound 65] | B ((B) 20-50%)
